From ChEMBL document CHEMBL1201861, “Genomics of Drug Sensitity in Cancer screening data, Wellcome Trust Sanger Institute”

How the values were obtained:
Experiment in all cases: cells
[1] = system: NCI-H1155; format: functional, cell-based; conditions: Homo sapiens;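 also: cell growth inhibition measured by a viability assay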
Description: SANGER: Inhibition of human NCI-H1155 cell growth in a cell viability assay.

[2] = system: HEL; format: functional, cell-based, Homo sapiens; conditions: Homo sapiens, HEL;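 also: growth inhibition of HEL cells, read out with a cell viability assay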
Description: SANGER: Inhibition of human HEL cell growth in a cell viability assay.

[3] = system: SK-PN-DW; format: functional, cell-based; conditions: Homo sapiens;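 also: growth inhibition measured with a viability assay on these cells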
Description: SANGER: Inhibition of human SK-PN-DW cell growth in a cell viability assay.

[4] = system: HL-60; format: functional, cell-based; conditions: Homo sapiens;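 also: growth inhibition of human HL-60 cells, read out with a cell viability assay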
Description: SANGER: Inhibition of human HL-60 cell growth in a cell viability assay.

[5] = system: GR-ST; format: functional, cell-based; conditions: Homo sapiens
Description: SANGER: Inhibition of human GR-ST cell growth in a cell viability assay.

[6] = system: A388; format: functional, cell-based, Homo sapiens; conditions: Homo sapiens, A388;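 also: growth inhibition of human A388 cells, read out with a cell viability assay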
Description: SANGER: Inhibition of human A388 cell growth in a cell viability assay.

[7] = system: ES5; format: functional, cell-based, Homo sapiens; conditions: Homo sapiens, ES5;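 also: growth inhibition of human ES5 cells, read out by a cell viability assay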
[8] = system: SH-4; format: functional, cell-based, Homo sapiens; conditions: Homo sapiens, SH-4;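 also: growth inhibition of SH-4 cells, read out with a cell viability assay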
Description: SANGER: Inhibition of human SH-4 cell growth in a cell viability assay.

[9] = system: TK-10; format: functional, cell-based, Homo sapiens; conditions: Homo sapiens, TK-10;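 also: growth inhibition of TK-10 cells, read out in a cell viability assay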
Description: SANGER: Inhibition of human TK10 cell growth in a cell viability assay.

[10] = system: NB6; format: functional, cell-based, Homo sapiens; conditions: Homo sapiens, NB6;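 also: growth inhibition of NB6 cells, read out by a cell viability assay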
Description: SANGER: Inhibition of human NB6 cell growth in a cell viability assay.

[11] = system: NB12; format: functional, cell-based, Homo sapiens; conditions: Homo sapiens, NB12;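 also: growth inhibition of human NB12 cells, read out by a cell viability assay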
Description: SANGER: Inhibition of human NB12 cell growth in a cell viability assay.

[12] = system: NCI-H1648; format: functional, cell-based, Homo sapiens; conditions: Homo sapiens, NCI-H1648;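 also: cell viability assay measuring inhibition of NCI-H1648 cell growth, from the Sanger screening data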
Description: SANGER: Inhibition of human NCI-H1648 cell growth in a cell viability assay.

[13] = system: KINGS-1; format: functional, cell-based, Homo sapiens; conditions: Homo sapiens, KINGS-1;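 also: cell viability assay measuring suppression of KINGS-1 cell growth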
Description: SANGER: Inhibition of human KINGS-1 cell growth in a cell viability assay.

[14] = system: GOTO; format: functional, cell-based, Homo sapiens; conditions: Homo sapiens, GOTO;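 also: growth inhibition of GOTO cells, read out by a cell viability assay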
Description: SANGER: Inhibition of human GOTO cell growth in a cell viability assay.

[15] = system: SNU-5; format: functional, cell-based; conditions: Homo sapiens;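 also: cell viability readout used to measure growth inhibition in human NCI-SNU-5 cells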
Description: SANGER: Inhibition of human NCI-SNU-5 cell growth in a cell viability assay.

[16] = system: no-11; format: functional, cell-based, Homo sapiens; conditions: Homo sapiens;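 also: growth inhibition of human NO-11 cells, read out with a cell viability assay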
Description: SANGER: Inhibition of human no-11 cell growth in a cell viability assay.

[17] = system: SHP77; format: functional, cell-based, Homo sapiens, SHP-77; conditions: Homo sapiens, SHP77;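 also: growth inhibition of human SHP-77 cells measured by a cell viability assay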
Description: SANGER: Inhibition of human SHP-77 cell growth in a cell viability assay.

[18] = system: CTB-1; format: functional, cell-based; conditions: Homo sapiens
Description: SANGER: Inhibition of human CTB-1 cell growth in a cell viability assay.

[19] = system: QIMR-WIL; format: functional, cell-based; conditions: Homo sapiens;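 also: growth inhibition of QIMR-WIL cells, read out with a cell viability assay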
Description: SANGER: Inhibition of human QIMR-WIL cell growth in a cell viability assay.

[20] = system: NCI-H720; format: functional, cell-based; conditions: Homo sapiens;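 also: growth inhibition of human NCI-H720 cells determined by a cell viability assay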
Description: SANGER: Inhibition of human NCI-H720 cell growth in a cell viability assay.

[21] = system: SK-MEL-2; format: functional, cell-based, Homo sapiens; conditions: Homo sapiens, SK-MEL-2;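 also: growth inhibition of human SK-MEL-2 cells measured with a cell viability assay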
Description: SANGER: Inhibition of human SK-MEL-2 cell growth in a cell viability assay.

[22] = system: ACN; format: functional, cell-based, Homo sapiens; conditions: Homo sapiens, ACN;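 also: growth inhibition of the human ACN cell line, read out via cell viability testing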
Description: SANGER: Inhibition of human ACN cell growth in a cell viability assay.

[23] = system: LU-139; format: functional, cell-based; conditions: Homo sapiens
Description: SANGER: Inhibition of human LU-139 cell growth in a cell viability assay.

[24] = system: GB-1; format: functional, cell-based, Homo sapiens; conditions: Homo sapiens, GB-1;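 also: growth of GB-1 cells judged by a viability assay, IC50 marks the concentration inhibiting growth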
Description: SANGER: Inhibition of human GB-1 cell growth in a cell viability assay.

[25] = system: ES7; format: functional, cell-based, Homo sapiens; conditions: Homo sapiens, ES7;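 also: growth inhibition of cultured human ES7 cells, read out as cell viability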
Description: SANGER: Inhibition of human ES7 cell growth in a cell viability assay.

[26] = system: HCE-4; format: functional, cell-based, Homo sapiens; conditions: Homo sapiens, HCE-4;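 also: cell viability assay measuring inhibition of growth in the human HCE-4 cell line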
Description: SANGER: Inhibition of human HCE-4 cell growth in a cell viability assay.

[27] = system: TE-11; format: functional, cell-based, Homo sapiens; conditions: Homo sapiens, TE-11;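 also: growth inhibition of human TE-11 cells, read out by a cell viability assay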
Description: SANGER: Inhibition of human TE-11 cell growth in a cell viability assay.

[28] = system: SW982; format: functional, cell-based; conditions: Homo sapiens;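 also: growth inhibition of SW982 cells, read out with a cell viability assay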
Description: SANGER: Inhibition of human SW982 cell growth in a cell viability assay.

Compound | IC50 [1] [nM] | IC50 [2] [nM] | IC50 [3] [nM] | IC50 [4] [nM] | IC50 [5] [nM] | IC50 [6] [nM] | IC50 [7] [nM] | IC50 [8] [nM] | IC50 [9] [nM] | IC50 [10] [nM] | IC50 [12] [nM] | IC50 [13] [nM] | IC50 [14] [nM] | IC50 [15] [nM] | IC50 [16] [nM] | IC50 [17] [nM] | IC50 [18] [nM] | IC50 [19] [nM] | IC50 [20] [nM] | IC50 [21] [nM] | further results
C=C1C(=O)O[C@@H]2C3O[C@]3(C)CC/C=C(\C)CC[C@@H]12 (stereo partly drawn) | > 5000 | 3180 | > 5000 | > 5000 | > 5000 | > 5000 | > 5000 | > 5000 | > 5000 | > 5000 | > 5000 | > 5000 | > 5000 | > 5000 | > 5000 | > 5000 | 3850 | > 5000 | > 5000 | > 5000 | IC50 [11]: > 5000 nM; IC50 [22]: > 5000 nM; IC50 [23]: > 5000 nM; IC50 [24]: > 5000 nM; IC50 [25]: > 5000 nM
CC1=C2C[C@H]3[C@@H](CC=C4C[C@@H](O)CC[C@@]43C)[C@@H]2CC[C@]12O[C@@H]1C[C@H](C)CN[C@H]1[C@H]2C [CYCLOPAMINE] | > 16000 | > 16000 | > 16000 | > 16000 | > 16000 | > 16000 | > 16000 | > 16000 | > 16000 | > 16000 | > 16000 | > 16000 | > 16000 | > 16000 | > 16000 | > 16000 | > 16000 | > 16000 | > 16000 | > 16000 | IC50 [11]: > 16000 nM; IC50 [22]: > 16000 nM; IC50 [23]: > 16000 nM; IC50 [24]: > 16000 nM; IC50 [25]: > 16000 nM
CS(=O)(=O)CCNCc1ccc(-c2ccc3ncnc(Nc4ccc(OCc5cccc(F)c5)c(Cl)c4)c3c2)o1 [LAPATINIB] | > 2000 | > 2000 | > 2000 | > 2000 | > 2000 | 723 | > 2000 | > 2000 | > 2000 | > 2000 | 25.4 | > 2000 | > 2000 | > 2000 | > 2000 | > 2000 | > 2000 | > 2000 | > 2000 | > 2000 | IC50 [11]: > 2000 nM; IC50 [22]: > 2000 nM; IC50 [23]: > 2000 nM; IC50 [24]: > 2000 nM; IC50 [25]: > 2000 nM
CCc1nc(N)nc(N)c1-c1ccc(Cl)cc1 [PYRIMETHAMINE] | > 20000 | 2670 | > 20000 | > 20000 | 709 | > 20000 | > 20000 | > 20000 | 7420 | > 20000 | > 20000 | > 20000 | > 20000 | > 20000 | > 20000 | > 20000 | > 20000 | 6610 | > 20000 | > 20000 | IC50 [11]: > 20000 nM; IC50 [22]: 2300 nM; IC50 [23]: 11100 nM; IC50 [24]: > 20000 nM; IC50 [25]: 14800 nM
O=C(/C=C/c1ccccc1)NC(NC(=S)Nc1cccc2cccnc12)C(Cl)(Cl)Cl (stereo not drawn) [SALUBRINAL] | > 16000 | 10600 | > 16000 | 13300 | > 16000 | > 16000 | > 16000 | > 16000 | > 16000 | > 16000 | > 16000 | > 16000 | > 16000 | > 16000 | > 16000 | > 16000 | > 16000 | > 16000 | 7570 | > 16000 | IC50 [11]: > 16000 nM; IC50 [22]: > 16000 nM; IC50 [23]: 14000 nM; IC50 [24]: > 16000 nM; IC50 [25]: > 16000 nM
CN1CCN(CCOc2cc(OC3CCOCC3)c3c(Nc4c(Cl)ccc5c4OCO5)ncnc3c2)CC1 [SARACATINIB] | > 2000 | > 2000 | > 2000 | > 2000 | > 2000 | > 2000 | > 2000 | > 2000 | 907 | > 2000 | 281 | > 2000 | > 2000 | > 2000 | > 2000 | > 2000 | > 2000 | > 2000 | > 2000 | > 2000 | IC50 [26]: > 2000 nM; IC50 [27]: 1430 nM; IC50 [28]: 1920 nM; IC50 [22]: > 2000 nM; IC50 [23]: > 2000 nM; IC50 [24]: 1800 nM; IC50 [25]: > 2000 nM
CO[C@H]1C[C@@H]2CC[C@@H](C)[C@@](O)(O2)C(=O)C(=O)N2CCCC[C@H]2C(=O)O[C@H]([C@H](C)C[C@@H]2CC[C@@H](O)[C@H](OC)C2)CC(=O)[C@H](C)/C=C(\C)[C@@H](O)[C@@H](OC)C(=O)[C@H](C)C[C@H](C)/C=C/C=C/C=C/1C [SIROLIMUS] | > 100 | 49.8 | 20.2 | > 100 | 0.846 | 44.8 | > 100 | 4.34 | > 100 | > 100 | > 100 | 51.5 | > 100 | > 100 | 83.2 | > 100 | > 100 | 11.8 | 25.4 | > 100 | IC50 [26]: > 100 nM; IC50 [27]: 77.2 nM; IC50 [28]: > 100 nM; IC50 [22]: > 100 nM; IC50 [23]: > 100 nM; IC50 [24]: > 100 nM; IC50 [25]: > 100 nM
CNC(=O)c1cc(Oc2ccc(NC(=O)Nc3ccc(Cl)c(C(F)(F)F)c3)cc2)ccn1 [SORAFENIB] | > 4000 | > 4000 | > 4000 | 3060 | > 4000 | 1590 | > 4000 | 656 | > 4000 | > 4000 | > 4000 | > 4000 | > 4000 | > 4000 | > 4000 | > 4000 | > 4000 | > 4000 | > 4000 | > 4000 | IC50 [11]: > 4000 nM; IC50 [22]: > 4000 nM; IC50 [23]: > 4000 nM; IC50 [24]: > 4000 nM; IC50 [25]: > 4000 nM
CCC(=O)N1CCN(c2ccc(-n3c(=O)ccc4cnc5ccc(-c6cnc7ccccc7c6)cc5c43)cc2C(F)(F)F)CC1 [TORIN1] | 654 | 16.4 | 49.5 | 149 | 26.5 | 68.9 | > 1200 | 35.8 | 40.2 | 52.7 | 36.2 | 58 | 207 | 136 | 14 | > 1200 | 222 | 80.6 | 550 | 464 | IC50 [26]: 38.6 nM; IC50 [27]: 23.7 nM; IC50 [28]: 42.5 nM; IC50 [22]: 15 nM; IC50 [23]: 130 nM; IC50 [24]: 15.5 nM; IC50 [25]: > 1200 nM
Cc1cc(Nc2cc(N3CCN(C)CC3)nc(Sc3ccc(NC(=O)C4CC4)cc3)n2)n[nH]1 [TOZASERTIB] | > 2000 | > 2000 | 791 | 1070 | > 2000 | 341 | > 2000 | > 2000 | > 2000 | 773 | > 2000 | > 2000 | > 2000 | > 2000 | > 2000 | > 2000 | > 2000 | 427 | > 2000 | > 2000 | IC50 [26]: 881 nM; IC50 [27]: 150 nM; IC50 [28]: 214 nM; IC50 [22]: > 2000 nM; IC50 [23]: > 2000 nM; IC50 [24]: > 2000 nM; IC50 [25]: > 2000 nM
